ChEMBL document CHEMBL1129167, “Examination of the role of the duocarmycin SA methoxy substituents: Identification of the minimum, fully potent DNA binding subunit” (Bioorg Med Chem Lett, 1996)

Assays:
L1210 = test: In vitro cytotoxicity in L1210 cell lines; assay type: functional, cell-based, Mus musculus
[1] = Compound was evaluated for relative DNA alkylation efficiency.; assay type: functional

Row | SMILES | IC50 (L1210) [nM] | krel [1]
1 | COC(=O)c1cc2c([nH]1)C(=O)C=C1N(C(=O)c3cc4ccccc4[nH]3)C[C@H]3C[C@]123 (stereo in doubt; (+)-4) [listing 1 of 2 here] | 0.065 | –
2 | COC(=O)c1cc2c([nH]1)C(=O)C=C1N(C(=O)c3cc4ccccc4[nH]3)C[C@H]3C[C@]123 (stereo in doubt; (+)-4) [listing 2 of 2 here] | – | 0.05
3 | COC(=O)c1cc2c([nH]1)C(=O)C=C1N(C(=O)c3cc4cc(OC)ccc4[nH]3)C[C@H]3C[C@]123 (stereo in doubt; (+)-5) [listing 1 of 2 here] | 0.01 | –
4 | COC(=O)c1cc2c([nH]1)C(=O)C=C1N(C(=O)c3cc4cc(OC)ccc4[nH]3)C[C@H]3C[C@]123 (stereo in doubt; (+)-5) [listing 2 of 2 here] | – | 1
5 | COC(=O)c1cc2c([nH]1)C(=O)C=C1N(C(=O)c3cc4ccc(OC)cc4[nH]3)C[C@H]3C[C@]123 (stereo in doubt; (+)-6) [listing 1 of 2 here] | 0.025 | –
6 | COC(=O)c1cc2c([nH]1)C(=O)C=C1N(C(=O)c3cc4ccc(OC)cc4[nH]3)C[C@H]3C[C@]123 (stereo in doubt; (+)-6) [listing 2 of 2 here] | – | 0.2
7 | COC(=O)c1cc2c([nH]1)C(=O)C=C1N(C(=O)c3cc4cccc(OC)c4[nH]3)C[C@H]3C[C@]123 (stereo in doubt; (+)-7) [listing 1 of 2 here] | 0.06 | –
8 | COC(=O)c1cc2c([nH]1)C(=O)C=C1N(C(=O)c3cc4cccc(OC)c4[nH]3)C[C@H]3C[C@]123 (stereo in doubt; (+)-7) [listing 2 of 2 here] | – | 0.1
9 | COC(=O)c1cc2c([nH]1)C(=O)C=C1N(C(=O)c3cc4ccccc4[nH]3)C[C@H]3C[C@]123 (stereo in doubt; (-)-4) | 1.7 | –
10 | COC(=O)c1cc2c([nH]1)C(=O)C=C1N(C(=O)c3cc4cc(OC)ccc4[nH]3)C[C@H]3C[C@]123 (stereo in doubt; (-)-5) | 0.3 | –
11 | COC(=O)c1cc2c([nH]1)C(=O)C=C1N(C(=O)c3cc4ccc(OC)cc4[nH]3)C[C@H]3C[C@]123 (stereo in doubt; (-)-6) | 1.3 | –
12 | COC(=O)c1cc2c([nH]1)C(=O)C=C1N(C(=O)c3cc4cccc(OC)c4[nH]3)C[C@H]3C[C@]123 (stereo in doubt; (-)-7) | 1.8 | –
13 | COC(=O)c1cc2c([nH]1)C(=O)C=C1N(C(=O)c3cc4cc(OC)c(OC)c(OC)c4[nH]3)C[C@H]3C[C@]123 [DUOCARMYCIN] | 0.1 | 1
